Reference: patent publication US20220177462A1, “SUBSTITUTED HETEROCYCLIC AMIDE COMPOUND AND PREPARATION METHOD THEREFOR AND PHARMACEUTICAL USE THEREOF” (GENFLEET THERAPEUTICS (SHANGHAI) INC., priority 2019, published 2022)
Read-outs that look alike come from different tables or passages of the source.

How the values were obtained:
RIPK1 enzyme = target: T1, RIPK1 enzyme (Homo sapiens, UniProt Q13546); experiment: Inhibitory activity of the compounds against RIPK1 enzyme (33P-ATP, MBP substrate); format: biochemical; settings: 36 nM RIPK1, 0.33 mg/ml MBP, 155 μM P33-labeled ATP, room temperature 2 hours
T1 construct: purchased Eurofins 16-022
T1 sequence (Q13546 1-671): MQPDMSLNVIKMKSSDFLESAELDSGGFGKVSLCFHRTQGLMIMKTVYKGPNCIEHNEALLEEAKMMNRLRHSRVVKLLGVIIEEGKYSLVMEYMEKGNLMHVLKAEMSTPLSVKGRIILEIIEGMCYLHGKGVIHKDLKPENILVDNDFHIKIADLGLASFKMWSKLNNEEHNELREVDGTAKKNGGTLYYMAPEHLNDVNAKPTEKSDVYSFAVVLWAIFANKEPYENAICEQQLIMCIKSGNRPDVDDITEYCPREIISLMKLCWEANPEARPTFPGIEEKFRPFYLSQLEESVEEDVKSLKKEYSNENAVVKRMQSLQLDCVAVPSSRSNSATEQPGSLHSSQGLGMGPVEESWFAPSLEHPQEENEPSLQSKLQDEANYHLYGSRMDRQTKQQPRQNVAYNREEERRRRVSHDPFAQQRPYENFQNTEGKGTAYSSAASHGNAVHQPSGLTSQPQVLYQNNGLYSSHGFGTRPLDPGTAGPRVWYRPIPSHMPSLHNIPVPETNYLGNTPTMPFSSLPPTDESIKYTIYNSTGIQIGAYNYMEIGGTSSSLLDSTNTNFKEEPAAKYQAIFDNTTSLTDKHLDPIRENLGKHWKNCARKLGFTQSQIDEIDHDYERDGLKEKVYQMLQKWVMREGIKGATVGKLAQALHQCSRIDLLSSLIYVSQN
Protocol: The test compound was dissolved in DMSO to prepare a 10 mM stock solution. The stock solution was diluted in 3.16 folds with DMSO to a series of gradient concentrations. Then, the resultant solution was diluted in 50 folds with MOPS buffer pH 7.0 to prepare a working solution. The working solution was mixed with 36 nM RIPK1 (final concentration) and 0.33 mg/ml substrate MBP homogeneously. Thereafter, 10 mM magnesium ion and 155 μM P^33 isotopically labeled ATP were added for the reaction. The final concentration of DMSO was 2%. After the reaction was carried out at room temperature for 2 hours phosphoric acid was added to terminate the reaction. The final reaction system was tested using a liquid scintillation counter after treatment. The result obtained by subtracting a blank control from the tested value was converted to activity percentage as compared to the readout value of control group. The activity percentage was plotted against the final concentration of respective compound using a 4-parameter fitting to obtain the inhibitory IC50 of the compound against RIPK1 enzyme.

U937 cells = experiment: Inhibitory activity against programmed necroptosis of U937 cells induced by TNF-α; format: cell-based, human
Protocol: The U937 cell strain which was used in the following Testing Examples was derived from ATCC, No.: CRL-1593.2, batch No.: 63479999, culture medium: RPMI-1640+10% FBS.
The compound was dissolved in DMSO to prepare a 10 mM stock solution. The stock solution was diluted in 3.16 folds with DMSO to a series of gradient concentrations. Then, the resultant solution was diluted in 250 folds with a culture medium to prepare a working solution. The U937 cells were inoculated in a 384-well plate at 5000/well. The compound at respective concentration was added to each of the cells, and was mixed with the cells homogeneously. 100 ng/ml human TNF-α and 25 μM Q-VD-Oph were added simultaneously to induce programmed necroptosis of the cells. The final concentration of DMSO was 2%. The cells were placed in the incubator at 37° C. and 5% CO2 for further culture of 48 hours. Celltiter-Glo reagent was used for detection. After adequate pyrolysis reaction, the chemiluminescence readout value was recorded by a microplate reader. The survival rate was calculated from the detection results using the equation as follows: SR (%)=(RLU compound−RLU blank)/(RLU high control−RLU blank)×100%. The survival rate was plotted against the final concentration of respective compound using a 4-parameter fitting to calculate the inhibitory IC50 of the compound against programmed necroptosis of cells induced by TNF-a.

L929 cells = experiment: Inhibitory activity against programmed necroptosis of L929 cells induced by TNF-α; format: cell-based; settings: Mus musculus, 30 ng/ml murine TNF-α and 15 μM Z-VAD, 6 hours, CellTiter-Glo survival rate, read-out: L929 AbIC50
Protocol: The compound was dissolve in DMSO to prepare a 10 mM stock solution. The stock solution was diluted in 3.16 folds with DMSO to a series of gradient concentrations. Then, the resultant solution was diluted in 100 folds with a culture medium to prepare a working solution. The L929 cells were inoculated in a 384-well plate at 10000/well. The compound at respective concentration was added to each of the wells, and was mixed with the cells homogeneously. 30 ng/ml murine TNF-α and 15 μM Z-VAD were added simultaneously to induce programmed necroptosis of the cells. The final concentration of DMSO was 2%. The cells were placed in an incubator at 37° C. and 5% CO2 for further culture of 6 hours. CellTiter-Glo reagent was used for detection. After adequate pyrolysis reaction, the chemiluminescence readout value was recorded by a microplate reader. The survival rate was calculated from the detection results using the equation as follows: SR (%)=(RLU compound −RLU blank)/(RLU high control−RLU blank)×100%. The survival rate was plotted against the final concentration of respective compound using a 4-parameter fitting to calculate the inhibitory IC50 of the compound against programmed necroptosis of cells induced by TNF-a.

[1] = read-out: U937 IC50, 100 ng/ml human TNF-α and 25 μM Q-VD-Oph, 48 hours, CellTiter-Glo survival rate
[2] = Homo sapiens, U-937, 48 h, 100 ng/ml human TNF-α and 25 μM Q-VD-Oph, 48 hours, CellTiter-Glo survival rate, read-out: U937 IC50

SMILES	IC50 (RIPK1 enzyme)	IC50 (L929 cells)	IC50 (U937 cells; [2])	further results
COc1ncc(-c2ccc3nc(N)sc3c2)cc1C(=O)NC(C)c1ccccc1OC(F)(F)F (single isomer, unassigned) [Compound Z1-2]	14 nM	6 nM		IC50 (U937 cells; 100 ng/ml human TNF-α and 25 μM Q-VD-Oph, 48 hours, CellTiter-Glo survival rate, read-out: U937 IC50): 0.028 µM
COc1ncc(-c2ccc3nc(NC(C)=O)sc3c2)cc1C(=O)NC(C)c1ccccc1OC(F)(F)F (single isomer, unassigned) [Compound Z5, 5-(2-acetylaminobenzothiazol-6-yl)-2-methoxy-N-(1-(2-(trifluoromethoxy)phenyl)ethyl)nicotinamide]	29 nM			IC50 (U937 cells; [1]): 0.015 µM
COc1ncc(-c2ccc3nc(NC(C)=O)sc3c2)cc1C(=O)NC(C)c1ccccc1OC(F)(F)F (single isomer, unassigned) [Compound Z5-1]	28 nM			IC50 (U937 cells; [1]): 0.005 µM
COc1ncc(-c2ccc3nc(NC(=O)C4CC4)sc3c2)cc1C(=O)NC(C)c1ccccc1OC(F)(F)F (single isomer, unassigned) [Compound Z6, 5-(2-(cyclopropylcarbonylamino)benzo[d]thiazol-6-yl)-2-methoxy-N-(1-(2-(trifluoromethoxy)phenyl)ethyl)nicotinamide]	36 nM		0.008 µM	
COc1ncc(-c2ccc3nc(NC(=O)C4CC4)sc3c2)cc1C(=O)N[C@@H](C)c1ccccc1OC(F)(F)F (single isomer, unassigned) [Compound Z6-1]	60 nM		0.003 µM	
C[C@H](c1ccccc1OC(F)(F)F)N1CCc2ncc(-c3ccc4nc(N)sc4c3)cc2C1=O (single isomer, unassigned) [Compound Z54-2]	51 nM	< 3 nM		IC50 (U937 cells; Homo sapiens, U-937, 48 h, read-out: U937 IC50(μM), 100 ng/ml human TNF-α and 25 μM Q-VD-Oph, 48 hours, CellTiter-Glo survival rate): 0.001 µM
COc1ncc(-c2ccc3nc(N)sc3c2)cc1C(=O)NCc1ccccc1OC(F)(F)F [Compound Z2, 5-(2-aminobenzo[d]thiazol-6-yl)-2-methoxy-N-(2-(trifluoromethoxy)benzyl)nicotinamide]	23 nM		0.038 µM	
COc1ncc(-c2ccc3nc(N)sc3c2)cc1C(=O)NC(C)c1cccc(OC(F)(F)F)c1 (centres unmarked) [Compound Z3, 5-(2-aminobenzo[d]thiazol-6-yl)-2-methoxy-N-(1-(3-(trifluoromethoxy)phenyl)ethyl)nicotinamide]	32 nM			
COc1ncc(-c2ccc3nc(N)sc3c2)cc1C(=O)NCc1cccc(OC(F)(F)F)c1 [Compound Z4, 5-(2-aminobenzo[d]thiazol-6-yl)-2-methoxy-N-(3-(trifluoromethoxy)benzyl)nicotinamide]	17 nM			
COc1ncc(C(=O)NC(C)c2ccccc2OC(F)(F)F)cc1-c1ccc2nc(N)sc2c1 (centres unmarked) [Compound Z7, 5-(2-aminobenzo[d]thiazol-6-yl)-6-methoxy-N-(1-(2-(trifluoromethoxy)phenyl)ethyl)nicotinamide]	84 nM			
CC(NC(=O)c1cncc(-c2ccc3nc(N)sc3c2)c1)c1ccccc1OC(F)(F)F (centres unmarked) [Compound Z9, 5-(2-aminobenzo[d]thiazol-6-yl)-N-(1-(2-(trifluoromethoxy)phenyl)ethyl)nicotinamide]	60 nM			
Cc1ncc(C(=O)NC(C)c2ccccc2OC(F)(F)F)cc1-c1ccc2nc(N)sc2c1 (centres unmarked) [Compound Z10, 5-(2-aminobenzo[d]thiazol-6-yl)-6-methyl-N-(1-(2-(trifluoromethoxy)phenyl)ethyl)nicotinamide]	64 nM			
COc1ncc(-c2ccc3nc(N)sc3c2)cc1C(=O)N1CCC[C@H](Cc2ccc(F)cc2)C1 [Compound Z17-1]		10 nM	0.009 µM	
Cn1ncc2c(-c3ccn4nc(N)nc4c3)cc(C(=O)N3CCCC(Cc4ccc(F)cc4)C3)cc21 (centres unmarked) [Compound Z29, (4-(2-amino-[1,2,4]triazolo[1,5-a]pyridin-7-yl)-1-methyl-1H-indazol-6-yl)(3-(4-fluorobenzyl)piperidin-1-yl)methanone]		12 nM	0.007 µM	
Cn1ncc2c(-c3ccn4nc(N)nc4c3)cc(C(=O)NCc3cc(F)ccc3OC3CCCC3)cc21 [Compound Z31, 4-(2-amino-[1,2,4]triazolo[1,5-a]pyridin-7-yl)-N-(2-(cyclopentyloxy)-5-fluorobenzyl)-1-methyl-1H-indazole-6-carboxamide]		41 nM	0.002 µM	
COc1ncc(-c2ccc3nc(N)sc3c2)cc1C(=O)NCc1cc(F)cc(F)c1OCC(C)C [Compound Z49, 5-(2-aminobenzo[d]thiazol-6-yl)-N-(3,5-difluoro-2-isobutoxybenzyl)-2-methoxynicotinamide]		37 nM	0.006 µM	
Nc1nc2ccc(-c3cnc4c(c3)C(=O)N(Cc3cc(OC(F)(F)F)ccc3F)CC4)cc2s1 [Compound Z55, 3-(2-aminobenzo[d]thiazol-6-yl)-6-(2-fluoro-5-(trifluoromethoxy)benzyl)-7,8-dihydro-1,6-naphthyridin-5(6H)-one]	39 nM		0.008 µM	
COc1ncc(-c2ccc3nc(NC(=O)C4CC4)sc3c2)cc1C(=O)NC(C)c1ccccc1OC(F)(F)F (centres unmarked) [Compound Z56, 5-(2-(cyclopropylformamido)benzo[d]thiazol-6-yl)-2-methoxy-N-(1-(2-(trifluoromethoxy)phenyl)ethyl)nicotinamide]	36 nM		0.008 µM	
Nc1nc2ccc(-c3cnc4c(c3)C(=O)N(Cc3cc(F)cc(F)c3OC3CC3)CC4)cc2s1 [Compound Z64, 3-(2-aminobenzo[d]thiazol-6-yl)-6-(2-cyclopropoxy-3,5-difluorobenzyl)-7,8-dihydro-1,6-naphthyridin-5(6H)-one]	34 nM	3 nM	0.004 µM	
Nc1nc2ccc(-c3cnc4c(c3)C(=O)N(Cc3cc(C(F)(F)F)ccc3F)CC4)cc2s1 [Compound Z65, 3-(2-aminobenzo[d]thiazol-6-yl)-6-(2-fluoro-5-(trifluoromethyl)benzyl)-7,8-dihydro-1,6-naphthyridin-5(6H)-one]	43 nM		0.048 µM	
